Data taken from patent US9220705B2, “Method of treating colorectal cancer” (priority 2013, dated 2015).

What was measured:
LoVo colon cancer cells = experiment: MTT cytotoxicity assay, cross-resistance profile; format: cell-based, human; details: 72 h
From the text: (§1) Human breast (MCF-7) and colon (HCT-15, DDL1, SW480 and CaCo-2) carcinoma cell lines along with melanoma (A375) were obtained from the American Type Culture Collection (ATCC, Rockville, Md.). A431 are human cervical carcinoma cells kindly provided by Prof. F. Zunino (Molecular Pharmacology Unit, Experimental Oncology and Molecular Medicine, Istituto Nazionale dei Tumori, Milan, Italy). […] G. Marverti (Dept. of Biomedical Science, University of Modena, Italy). LoVo human colon-carcinoma cell line and its multidrug-resistant sublime (LoVo MDR) were kindly provided by Prof F. Maj one (Department of Biology of Padova University, Italy).
(§2) The growth inhibitory effect towards tumor cell lines was evaluated by means of the MTT (3-(4,5-dimethylthiazol-2-yl)-2,5-diphenyltetrazolium bromide) assay (Alley, M. C., et al., Cancer Res. 1988, 48, 589-601).
(§3) Briefly, depending upon the growth characteristics of the cell line, 3-8×10^3 cells well^−1, were seeded in 96-well microplates in growth medium (100 μL) and then incubated at 37° C. in a 5% carbon dioxide atmosphere. After 24 h, the medium was removed and replaced with a fresh one containing the compound to be studied, at the appropriate concentration, dissolved in 0.9% sodium chloride solution just before use. Triplicate cultures were established for each treatment. After 72 h, each well was treated with […] of a 5 mg mL^−1 MTT saline solution and, after 5 h of incubation, 100 μL of a sodium dodecylsulfate (SDS) solution in 0.01 M HCl were added. After an overnight incubation, the inhibition of cell growth induced by the tested complexes was determined by measuring the absorbance of each well at 570 nm using a BioRad 680 microplate reader. Mean absorbance for each drug dose was expressed as percentage of the control and plotted vs. drug concentration. Dose-response curves were fitted and IC50 values were calculated with four parameter logistic model (4PL).
(§4) A LoVo cell line retaining a multidrug resistance phenotype was also considered (LoVo MDR). Cross-resistance profiles were evaluated by means of the resistance factor (RF), which is defined as the ratio between the IC50 value for the resistant cells and that arising from the sensitive cells (Table 2).

[1] = test system: LoVo-OXP oxaliplatin resistant colon cancer cells; experiment: MTT cytotoxicity assay, cross-resistance profile; format: cell-based, human
From the text: (§5) Human breast (MCF-7) and colon (HCT-15, DDL1, SW480 and CaCo-2) carcinoma cell lines along with melanoma (A375) were obtained from the American Type Culture Collection (ATCC, Rockville, Md.). A431 are human cervical carcinoma cells kindly provided by Prof. F. Zunino (Molecular Pharmacology Unit, Experimental Oncology and Molecular Medicine, Istituto Nazionale dei Tumori, Milan, Italy). […] G. Marverti (Dept. of Biomedical Science, University of Modena, Italy). LoVo human colon-carcinoma cell line and its multidrug-resistant sublime (LoVo MDR) were kindly provided by Prof F. Maj one (Department of Biology of Padova University, Italy). […] Cell lines were maintained in the logarithmic phase at 37° C. in a 5% carbon dioxide atmosphere using the following culture media containing 10% fetal calf serum (Euroclone, Milan, Italy), antibiotics (50 units mL^−1 penicillin and 50 μg mL^−1 streptomycin), and 2 mM L-glutamine in: i) RPMI-1640 medium (Euroclone) for MCF-7, HCT-15, A431, DLD 1, 2008, and C13* cells; ii) F-12 HAM'S (Sigma Chemical Co.) for LoVo, LoVo MDR, and LoVo-OXP cells; iii) DMEM for A375 and SW 480 cells; and iv) MEM for CaCo-2 cells.
as §2, §3, §4

[2] = test system: 2008 ovarian cancer cells; experiment: MTT cytotoxicity assay, cross-resistance profile; format: cell-based, human; details: 72 h
From the text: as §5, §2, §3, §4

[3] = test system: C13* cisplatin resistant ovarian cancer cells; experiment: MTT cytotoxicity assay, cross-resistance profile; format: cell-based, human
From the text: as §5, §2, §3, §4

CaCo-2 = experiment: MTT cytotoxicity assay, 72 h; format: cell-based, human; details: CaCo-2, colon
From the text: as §1, §2
Briefly, depending upon the growth characteristics of the cell line, 3-8×10^3 cells well^−1, were seeded in 96-well microplates in growth medium (100 μL) and then incubated at 37° C. in a 5% carbon dioxide atmosphere. […] After an overnight incubation, the inhibition of cell growth induced by the tested complexes was determined by measuring the absorbance of each well at 570 nm using a BioRad 680 microplate reader. Mean absorbance for each drug dose was expressed as percentage of the control and plotted vs. drug concentration. […]

[4] = test system: LoVo MDR multidrug resistant colon carcinoma subline; experiment: MTT cytotoxicity assay, cross-resistance profile; format: cell-based, human
From the text: as §5, §2, §3, §4
In Table 2 are also reported the results obtained in a multidrug resistant (MDR) colon carcinoma subline, LoVo MDR, in which the resistance to doxorubicin, a drug belonging to the MDR spectrum, is associated with an overexpression of multi-specific drug transporters, such as the 170 kDa P-glycoprotein (P-gp) (Wersinger, C., et al., Amino Acids 2000, 19, 667-685). It is well known that acquired MDR, whereby cells become refractory to multiple drugs, poses most important challenge to the success of anticancer chemotherapy.

DLD-1 = experiment: MTT cytotoxicity assay, 72 h; format: cell-based, human; details: DLD-1, colon
From the text: as §5, §2, §3
(§6) Compound 1 was prepared for the first time almost twenty years ago however, until now, it had been tested (both in vitro and in vivo) only in a limited number of tumor cell lines (Hoeschele, J. D., et al., J. Med. Chem. 1994, 37, 2630-2636 and Shamsuddin, S., et al., J. Inorg. Biochem. 1996, 61, 291-301). The Pt(II) and Pt(IV) complexes containing isomeric forms of diaminocyclohexane, [PtCl2(cis-1,4-DACHA](1), [PtCl2(1R,2R-DACH)] (2), [Pt(OXA)(cis-1,4-DACH)] (3), cis,trans,cis-[Pt^IVCl2(OH)2(cis-1,4-DACH)] (4), cis,trans,cis-[Pt^IVCl2(DCA)2(cis-1,4-DACH)] (5), [Pt(CBDCA)(cis-1,4-DACH)] (6), cis,trans,cis-[Pt^IV(OXA)(OH)2(cis-1,4-DACH)] (7), and cis,trans,cis-[Pt^IV(OXA)(DCA)2(cis-1,4-DACH)] (8) were evaluated for their cytotoxic activity towards a panel of human tumor cell lines including cervical (A431), breast (MCF-7), cancers along with a melanoma (A375) and 4 different colon cancer cell lines corresponding to different stages of the disease progression (HCT-15, SW480, CaCo-2, DLD-1). The cytotoxicity was evaluated by means of the MTT test for 72 h treatment with increasing concentrations of the tested compounds.

A431 = experiment: MTT cytotoxicity assay, 72 h; format: cell-based, human; details: A431, cervix
From the text: as §5, §2, §3, §6

SW480 = experiment: MTT cytotoxicity assay, 72 h; format: cell-based, human; details: SW480, colon
From the text: as §5, §2, §3, §6

MCF-7 = experiment: MTT cytotoxicity assay, 72 h; format: cell-based, human; details: MCF-7, breast
From the text: as §5, §2, §3, §6

HCT-15 = experiment: MTT cytotoxicity assay, 72 h; format: cell-based, human; details: HCT-15, colon
From the text: as §5, §2, §3, §6

A375 = experiment: MTT cytotoxicity assay, 72 h; format: cell-based, human; details: A375, skin
From the text: as §5, §2, §3, §6

[5] = test system: panel of human tumor cell lines (A431, MCF-7, A375, HCT-15, SW480, CaCo-2, DLD-1); experiment: MTT cytotoxicity, comparison over the Table 1 panel; format: cell-based; details: in five out of the seven cell lines
Protocol: as §3, with “After” for “Briefly, depending upon the growth characteristics of the cell line, 3-8×10^3 cells well^−1, were seeded in 96-well microplates in growth medium (100 μL) and then incubated at 37° C. in a 5% carbon dioxide atmosphere. After”
The cytotoxicity was evaluated by means of the MTT test for 72 h treatment with increasing concentrations of the tested compounds.

Q: Which IC50 (LoVo colon cancer cells) does the source give for “(OC-6-33)-dichloro(cis-1,4-cyclohexanediamine-N,N′)dihydroxyplatinum [Compound 4]” here?
A: 6.64 ± 2.7 µM

Q: What about the “R.F. (resistance factor)” value ([1]; IC50 LoVo-OXP / IC50 LoVo, cross-resistance with oxaliplatin) of the same substance?
A: 1.6

Q: What about the IC50 ([1]; LoVo-OXP, 72 h, MTT) of the same substance?
A: 9.46 ± 2.15 µM

Q: And the IC50 [2]?
A: 9.42 ± 1.16 µM

Q: What about the IC50 ([3]; C13*, 72 h, MTT) of the same substance?
A: 13.8 ± 3.53 µM

Q: And the “R.F. (resistance factor)” value ([3]; IC50 C13* / IC50 2008, cross-resistance with cisplatin)?
A: 1.5

Q: And the IC50 (CaCo-2)?
A: 7.12 ± 3.13 µM

Q: What about the “R.F. (resistance factor)” value ([4]; IC50 LoVo-MDR / IC50 LoVo) of the same substance?
A: 1.5

Q: What about the IC50 ([4]; LoVo-MDR, 72 h, MTT) of the same substance?
A: 9.26 ± 2.11 µM

Q: And the IC50 (DLD-1)?
A: 7.74 ± 2.16 µM

Q: What about the IC50 (A431) of the same substance?
A: 6.33 ± 1.99 µM

Q: And the IC50 (SW480)?
A: 6.32 ± 2.15 µM

Q: And the IC50 (MCF-7)?
A: 7.01 ± 2.05 µM

Q: And the IC50 (HCT-15)?
A: 10.3 ± 1.42 µM

Q: What about the IC50 (A375) of the same substance?
A: 6.23 ± 1.96 µM

Q: And the “IC50 values fold lower than that of cisplatin” value [5]?
A: up to 2
